In PubChem BioAssay AID1645864 (Buhrlage Lab, Dana-Farber Cancer Institute and Novartis …, 2021):
Active and inactive are the calls of the source.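 Rule for the calls: active = maximal inhibition of USP17 at or above 30% in the confirmation dose-response, a value not among the printed readouts; inactive = the rest.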

target: Ubiquitin carboxyl-terminal hydrolase 17-like protein 5 (Homo sapiens) (UniProt A8MUK1); test: ubiquitin-specific protease 17 DUB inhibitors, concentration-effect assay, cell-free, verification of initial screening actives (AID 1645864); settings: purified USP17, ubiquitin-rhodamine cleavage fluorescence, 3 h
Sequence (A8MUK1 whole entry, looked up): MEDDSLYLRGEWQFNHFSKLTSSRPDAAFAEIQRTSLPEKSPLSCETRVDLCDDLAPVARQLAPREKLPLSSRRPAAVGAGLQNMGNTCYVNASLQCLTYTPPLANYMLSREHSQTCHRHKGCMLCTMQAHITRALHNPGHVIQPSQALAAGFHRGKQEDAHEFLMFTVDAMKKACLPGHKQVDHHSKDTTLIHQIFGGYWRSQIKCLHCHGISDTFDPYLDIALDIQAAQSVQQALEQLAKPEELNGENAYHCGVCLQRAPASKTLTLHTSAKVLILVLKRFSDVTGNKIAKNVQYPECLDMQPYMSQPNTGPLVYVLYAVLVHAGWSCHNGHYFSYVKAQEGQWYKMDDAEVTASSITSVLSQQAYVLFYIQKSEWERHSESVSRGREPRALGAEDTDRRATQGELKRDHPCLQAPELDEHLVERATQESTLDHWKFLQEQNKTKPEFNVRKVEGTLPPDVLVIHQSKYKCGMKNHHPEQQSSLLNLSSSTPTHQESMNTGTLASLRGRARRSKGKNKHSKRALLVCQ

IC50 | Structure (SMILES)
36.9 µM | CSc1nc(SCC(N)=O)c2c3c(sc2n1)COC(C)(C)C3
10.2 µM | COc1ccc(C(=O)Nc2nc3n(n2)C(c2ccccc2)CC(=O)N3)cc1 (stereo unspecified)
> 50 µM (inactive) | O=C(c1cc2ccccc2o1)N1CC=C(c2ccccc2)CC1
> 50 µM (inactive) | CCCCCCCc1cc(O)cc(O)c1
> 50 µM (inactive) | Cc1cnc2nc3c(cc2c1)CN(S(=O)(=O)c1cc(F)ccc1C)CC3
45.8 µM | CCOc1ccc(N2C(=O)c3ccccc3C2C(=O)NCc2ccccc2OC)cc1 (stereo unspecified)
> 50 µM (inactive) | Cc1ccc(C(C)C)cc1OCCOCCN1CCNCC1
24.5 µM | COc1ccc(NC(=O)CC(=O)c2ccc([N+](=O)[O-])cc2)cc1S(=O)(=O)Nc1ccc(Cl)cc1
4.16 µM | Cc1ccc2[nH]c(=O)c(CN(CC3COCCO3)S(=O)(=O)c3ccc(F)cc3)cc2c1 (stereo unspecified)
19.9 µM | COc1cc(/C=C/C(=O)OCC(=O)Nc2ccc([N+](=O)[O-])cc2OC)ccc1O
22.8 µM | CCCCCCCCCC(CCCCCCCCCC(=O)O)O[C@H]1O[C@@H](COC(C)=O)[C@H](O)[C@@H](O)[C@H]1OC(=O)CC(=O)O (stereo partly specified)
> 50 µM (inactive) | Nc1ccccc1SC(CC(=O)c1ccc(Cl)cc1)c1ccsc1 (stereo unspecified)
19.5 µM | Cc1ccc(NC(=O)Cn2cc(S(=O)(=O)N3CCCC3)ccc2=O)cc1
> 50 µM (inactive) | O=C1N(Cc2ccc(F)cc2)CCN1c1ccc2c(c1)CCC2
> 50 µM (inactive) | Cc1ccc(C)c(CSC2=NCCN2C(=O)c2ccco2)c1
> 50 µM (inactive) | NC(=O)Cn1c(=O)n(Cc2ccc(C(=O)NC3CCCC3)cc2)c(=O)c2ccccc21
6.53 µM | COc1ccc(-c2nc(-c3nnn(Cc4ccc(F)cc4)c3C)no2)c(OC)c1
22.6 µM | Cc1cccc(NC(=O)Nc2ccc(C)n(CC(=O)Nc3ccccc3)c2=O)c1
2.35 µM | CSc1ccccc1C(=O)Nc1sc2c(c1C(N)=O)CCC(C)C2 (stereo unspecified)
> 50 µM (inactive) | COc1ccc(CC(=O)Nc2cccc(-c3nc4ncccc4o3)c2)cc1OC

IC50 | Structure (SMILES)
> 50 µM (inactive) | Cc1nn(-c2ccccc2)c(C)c1C(=O)OCC(=O)Nc1cccc(C#N)c1
32.2 µM | O=C(CN1C(=O)C2CCCC2=Nc2ccccc21)Nc1ccc(F)cc1F (stereo unspecified)
2.51 µM | Cc1ccc(NC(=O)c2cnc3c(c2)c(=O)n(C)c(=O)n3C)cc1
47.5 µM | COc1ccc(-c2nc(SCC(=O)Nc3ccc(Cl)cc3F)n[nH]2)cc1
1.96 µM | COc1cc(-c2nc(C(N)=O)c3[nH]c(=O)n(-c4ccc(C)cc4)c3n2)cc(OC)c1OC
44.9 µM | O=C(O)c1ccc(C2Cc3c([nH]c(=O)[nH]c3=O)O2)cc1 (stereo unspecified)
> 50 µM (inactive) | COc1ccc(CCC(=O)Nc2ccc3c(c2)Sc2ncccc2C(=O)N3C)cc1
> 50 µM (inactive) | Cc1sc(NC(=O)CNc2ccccc2)nc1-c1ccc2c(c1)CCN2C(=O)C(C)C
26.8 µM | O=C(Cn1c(=O)c2sccc2n(Cc2ccc([N+](=O)[O-])cc2)c1=O)NCCc1ccccc1
26 µM | O=C(CSc1ncnc2c1oc1ccccc12)NC1CCCC1
0.226 µM | Cc1ccc(-n2c(-c3ccccc3)cn3c4c(=O)[nH]c(=O)n(C)c4nc23)cc1Cl
> 50 µM (inactive) | O=C(CN1CCCc2ccccc21)Nc1ccc(N2CCOCC2)cc1
> 50 µM (inactive) | O=C(Cc1cccc2ccccc12)Nc1nc2ccc(F)cc2s1
46.6 µM | c1ccc(-n2nnc(-c3noc(-c4ccccn4)n3)c2-c2ccncc2)cc1
35.5 µM | COc1ccc(CNC(=O)c2[nH]nc3c2CCc2ccccc2-3)cc1
20.3 µM | CC1=C(c2ccc(Cl)cc2)S(=O)(=O)NC1=NCC(=O)Nc1ccc(F)cc1
29.2 µM | COc1ccc(-c2cc3c(=O)n(CC(=O)NCCCN4CCCC4)ncn3n2)cc1
25.9 µM | CC1=C(c2ccc(F)cc2)S(=O)(=O)NC1=NCC(=O)Nc1ccc(F)cc1F
22.9 µM | COc1ccc(NC(=O)C2CC(=O)Nc3cc(-c4ccccc4)nn32)cc1 (stereo unspecified)
> 50 µM (inactive) | Cc1ccc(/C=C/C(=O)Nc2ccc3c(c2)OCCO3)cc1

Structure (SMILES) | IC50
c1ccc(CCN2CCc3nc4cccnc4cc3C2)nc1 | > 50 µM (inactive)
